Read-outs that look alike come from different tables or passages of the source.
Columns and labels:
[1] = system: pigmented guinea pigs; test: General toxicity in guinea pigs (mortality, weight gain), daily ip injection; type: in vivo, guinea pig
Description: Daily weight measurements determined the injection volume.

[2] = system: pigmented guinea pigs
Protocol: Auditory thresholds were assessed in the 0.5 g/kg and 1 g/kg/day subjects at day 45 of dosing while the 2 g/kg/day subjects were evaluated at 22 days of dosing. […] Daily weight measurements determined the injection volume. Assessment of auditory function occurred at the conclusion of dosing.
Injections, determined by daily weight measurements, were made ip daily for 45 days.
Continuous tones were used for eliciting CM. Tone bursts were used to elicit the CAP.

[3] = system: MCF-7 human breast tumor; test: MCF-7 human breast cancer xenograft model; type: in vivo, Nude mice; conditions: 0.5% w/v in drinking water; for animals with partial tumor shrinkage: Day 90, eight animals per group; for mean partial tumor shrinkage: Day 90, in the animals with shrinkage; for tumor growth inhibition: Day 90, in the animals without shrinkage
Protocol: FIG. 11 Mean Tumor weight of MCF-7 human breast tumors in nude […].
Nude mice were implanted with the estrogen-dependent human breast tumor line, MCF-7 (ATCC #HTB22). […] The experiment was terminated on Day 90 (when control tumors had reached a size of 400 mg.). Mice were weighed twice weekly, and tumor measurements were taken by calipers twice weekly, starting at time of DFMO administration (Day 1). Tumor measurements were converted to mg tumor weight by the formula, L^2×W/2.

[4] = rats, 200 mg/kg/day to 1.2 g/kg/day by intubation, up to eight weeks
Protocol: Twenty-four Long Evans pigmented rats (250-275 g) were acquired from Harlan Sprague Dawley (Indianapolis, Ind.) and thirty-six pigmented guinea pigs obtained from Kuiper Rabbit Ranch (Gary, Ind.) at an initial weight of 200-250 g and housed in University of Oklahoma Health Sciences Center animal facility. Subjects were housed under a 12:12 hr light dark cycle with free access to food and water with a room temperature controlled at 21° C.
Twenty-four animals were randomly placed into 8 groups of three subjects each. […] Four additional animals were randomly placed into 2 subsequent groups: 400 and 600 mg/kg/day by gavage twice a day (5 days/week) for 8 weeks. […] Weight measurements were taken daily (5 days/week) with assessment of auditory function performed at the conclusion of dosing.

[5] = system: tumor putrescine levels; conditions: rat-tumor model, infusion; cited from earlier work
[6] = Plasma levels in rats after single oral dose
[7] = system: hair cells of the basilar membrane; test: Histology of Organ of Corti surface preparations (SDH staining, hair cell damage); conditions: one guinea pig, 1 g/kg/day for 45 days; most apical 40% normal
Protocol: Surface preparations of the Organ of Corti were evaluated in a limited number of subjects. The animals were decapitated while deeply anesthetized after CAP and CM recording. Cochleae were removed immediately. Both the round and oval windows were opened and the apex of the cochlea was drilled open to facilitate perfusion. The cochleae were perfused with SDH (succinate dehydrogenase) incubative solution (0.05 M sodium succinate, 0.05 M phosphate buffer and 0.05% TetraNitro Blue Tetrazolium) and immersed in the solution for one h (37° C.). Then the cochleae were fixed with 10% formalin for at least 2 days. After fixation, the cochleae were decalcified in 10% EDTA solution (EthyleneDiamine Tetraacetic Acid) for 3 days or longer as needed. Cochlea microdissection was accomplished under a light microscope.
Locations along the surface of the basilar membrane were identified by percent distance from apex, and can be related to the physiological data because sound is encoded in a tonotopic fashion with the highest frequencies represented in the most basal portion of the cochlea.

[8] = rat, in vivo, po, 200 mg/kg
[9] = system: MCF-7, LNCaP, PC-3, HT-29 cancer cell lines; test: Induction of apoptosis in cell lines (DNA fragmentation ELISA, Hoechst staining); type: cell-based, human; conditions: DFMO forms at 1 and 10 uM
Protocol: Each of the three forms of DFMO were tested at two concentrations (1 and 10 uM). Adriamycin and calcium chloride were used as positive controls. Apoptosis was assayed using a multi-well plate DNA fragmentation assay according to the Cellular DNA Fragmentation ELISA kit (Boehringer Mannheim Biochemicals, Cat. #1585-045) and Hoechst staining.

Molecule: NCCCC(N)(C(=O)O)C(F)F (racemic) [D,L-DFMO, 2-(Difluoromethyl)-DL-ornithine]
- systemic toxicity (growth rate) ([1]; 500 mg/kg/day ip, 45 days): no apparent signs of systemic toxicity
- weight gain ([1]; 1 g/kg/day ip, 45 days): appear to diverge from the controls during the last 10 days
- subjects that did not survive ([1]; 1 g/kg/day ip, full 6 week dosing regimen): two of the five
- weight gain ([1]; 2 g/kg/day ip, to day 22): effectively blocked
- animals dying ([1]; 3 g/kg/day ip, within the first six days): 100%
- average loss of auditory sensitivity (CAP), 20 to 40 kHz ([2]; 500 mg/kg/day ip, day 45): 7.1 dB
- CAP threshold elevation, average ([2]; 500 mg/kg/day ip, day 45, all frequencies): 9 dB
- effect on CM sensitivity ([2]; 500 mg/kg/day to 2 g/kg/day ip): not effected
- average loss of auditory sensitivity (CAP), 20 to 40 kHz ([2]; 1 g/kg/day ip, day 45): 17 dB
- CAP threshold average loss across all frequencies ([2]; 2 g/kg/day ip, 22 days): 14 dB
- average loss of auditory sensitivity (CAP), 20 to 40 kHz ([2]; 2 g/kg/day ip, 22 days): 30 dB
- animals with partial tumor shrinkage [3]: seven of eight
- mean partial tumor shrinkage [3]: 60.4%
- tumor growth inhibition [3]: 99.2%
- weight change [4]: does not produce any significant weight change
- decrease in tumor putrescine levels [5]: 90%
- maximum plasma level ([6]; 400 mg/kg orally): 109 µg/mL
- portion of basilar membrane showing hair cell damage [7]: 60%

Molecule: NCCC[C@@](N)(C(=O)O)C(F)F [D-DFMO, D enantiomer of difluoromethylornithine]
- animals with partial tumor shrinkage [3]: four of eight
- mean partial tumor shrinkage [3]: 62.6%
- tumor growth inhibition [3]: 84.7%
- toxic death ([3]; eight animals per group): two animals experienced toxic death
- plasma level [8]: 102 µg/mL

Molecule: COc1cccc2c1C(=O)c1c(O)c3c(c(O)c1C2=O)C[C@@](O)(C(=O)CO)C[C@@H]3O[C@H]1C[C@H](N)[C@H](O)[C@H](C)O1 [adriamycin]
- apoptosis and cytotoxicity [9]: cytotoxic as well as apoptotic

Molecule: (−)-4-difluoromethyl-ornithine [L-DFMO]
- animals with partial tumor shrinkage [3]: seven of eight
- mean partial tumor shrinkage [3]: 50.0%
- tumor growth inhibition [3]: 5.5%
- plasma level ([6]; 200 mg/kg orally, one to two hours): 45 µg/mL

Reference: patent US6602910B2, “D-enantiomer of DFMO and methods of use therefor” (priority 2000, dated 2003)
